According to patent US4514408A, “N-substituted nicotinamide 1-oxide as histamine H2 receptor blockers” (Sanofi, priority 1982, dated 1985):

Assays:
[1] = molecular target: T1, gastric histamine H2 receptors (Rattus norvegicus, UniProt P25102); assay: antisecretory activity: antagonism of gastric hypersecretion induced by histamine in the atropinised rat (Ghosh and Schild modified according to Black); format: in vivo; settings: for ED50: intravenous, single administration, histamine i.v. infusion 15 mcmol/kg/hour, atropinised rat, read-out: ID50 (dose which inhibits by 50% the gastric hypersecretion induced by histamine)
T1 construct: the gastric secretion is measured by perfusion of a physiological solution at a constant speed in the stomach of the animal; from tissue; host or cells: stomach of the living atropinised rat (in vivo, endogenous receptor)
T1 sequence (P25102 whole entry, the tested form may be a part): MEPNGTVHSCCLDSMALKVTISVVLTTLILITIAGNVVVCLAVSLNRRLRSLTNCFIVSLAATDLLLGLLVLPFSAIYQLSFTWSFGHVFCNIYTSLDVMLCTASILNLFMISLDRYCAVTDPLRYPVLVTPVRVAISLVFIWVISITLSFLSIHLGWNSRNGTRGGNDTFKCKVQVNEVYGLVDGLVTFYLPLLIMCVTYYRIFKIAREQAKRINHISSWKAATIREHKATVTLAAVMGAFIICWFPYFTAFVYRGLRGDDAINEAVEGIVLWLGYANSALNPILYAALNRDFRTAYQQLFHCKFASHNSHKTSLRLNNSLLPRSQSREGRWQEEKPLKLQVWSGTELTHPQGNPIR
Experimental: According to this test, a gastric acid hypersecretion is induced by intravenous infusion of a sub-maximal dose of histamine equivalent to 15 mcmol/kg/hour and the gastric secretion is measured by perfusion of a physiological solution at a constant speed in the stomach of the animal.
Cimetidine and ranitidine, which represent standard compounds, as well as:
the compound of formula [drawing 5] as oxalate, and […]

[2] = system: histamine H2 receptors; settings: i.v.; cited from earlier work
[3] = from ID50, i.v., cimetidine = 1

Compound | Relative potency (cimetidine = 1) [1, 3] | ED50 [1] | ED50 [2] | Relative potency (cimetidine = 1) ([1]; rat, in vivo, iv)
O=C(NCCCOc1cccc(CN2CCCC2)c1)c1ccc[n+]([O-])c1 [CM 57891, N-[3-(3-pyrrolidinomethylphenoxy)propyl]-3-pyridinecarboxamide 1-oxide] | 2.43 | 0.39 µmol/kg |  | 
O=CNCCCOc1cccc(CN2CCCC2)c1 [Compound IV, reference compound] | 0.47 | 2.01 µmol/kg | 0.84 mg/kg | 
O=C(NCCCOc1cccc(CN2CCCC2)c1)c1cccnc1 [Compound V, reference compound] | 0.43 | 2.22 µmol/kg | 1.25 mg/kg | 
CNC(=C[N+](=O)[O-])NCCSCc1ccc(CN(C)C)o1 [Ranitidine, N-[2-[[5-[(dimethylamino)methyl]furfuryl]thio]ethyl]-N'-methyl-2-nitro-1,1-ethenediamine, reference compound] |  |  |  | 3.80
O=C(NCCCOc1cccc(CN2CCCCC2)c1)c1ccc[n+]([O-])c1 [SR 58017A, N-[3-(3-piperidinomethylphenoxy)propyl]-3-pyridinecarboxamide 1-oxide sesquioxalate] | 8.64 | 0.11 µmol/kg |  | 
CC1CCN(Cc2cccc(OCCCNC(=O)c3ccc[n+]([O-])c3)c2)CC1 [SR 58037, N-[3-[3-(4-methylpiperidinomethyl)phenoxy]propyl]-3-pyridinecarboxamide 1-oxide] | 7.31 | 0.13 µmol/kg |  | 
CC1CCCN(Cc2cccc(OCCCNC(=O)c3ccc[n+]([O-])c3)c2)C1 (centres unmarked) [SR 58042, N-[3-[3-(3-methylpiperidinomethyl)phenoxy]propyl]-3-pyridinecarboxamide1-oxide] | 6.78 | 0.14 µmol/kg |  | 
O=C(NCCCOc1cccc(CN2CCCCCC2)c1)c1ccc[n+]([O-])c1 [SR 58052, N-[3-(3-hexamethyleneiminomethylphenoxy)propyl]-3-pyridinecarboxamide 1-oxide] | 3.80 | 0.25 µmol/kg |  | 
CCCCN(CCCC)Cc1cccc(OCCCNC(=O)c2ccc[n+]([O-])c2)c1 [SR 58062, N-[3-(3-di-n-butylaminomethylphenoxy)propyl]-3-pyridinecarboxamide 1-oxide] | 1.19 | 0.8 µmol/kg |  | 
O=C(NCCCOc1cc(CN2CCCCC2)ccn1)c1ccc[n+]([O-])c1 [SR 58065, N-[3-(4-piperidinomethylpyrid-2-yloxy)propyl]3-pyridinecarboxamide 1-oxide] | 1.48 | 0.64 µmol/kg |  | 
O=C(NCCCOc1cccc(CN2CCC(O)CC2)c1)c1ccc[n+]([O-])c1 [SR 58067, N-[3-[3-(4-hydroxypiperidinomethyl)phenoxy]propyl]-3-pyridinecarboxamide 1-oxide] | 1.34 | 0.71 µmol/kg |  | 
